Key:
Assay type in all cases: biochemical
neutrophil elastase = biological target: T1, neutrophil elastase (Homo sapiens, UniProt P08246); assay: Inhibition of neutrophil elastase, additional peptide inhibitors preincubated in phosphate buffer (Table 3); set-up: Neutrophil elastase was prepared by the procedure described by Baugh. et al; from tissue
T1 sequence (P08246 30-267): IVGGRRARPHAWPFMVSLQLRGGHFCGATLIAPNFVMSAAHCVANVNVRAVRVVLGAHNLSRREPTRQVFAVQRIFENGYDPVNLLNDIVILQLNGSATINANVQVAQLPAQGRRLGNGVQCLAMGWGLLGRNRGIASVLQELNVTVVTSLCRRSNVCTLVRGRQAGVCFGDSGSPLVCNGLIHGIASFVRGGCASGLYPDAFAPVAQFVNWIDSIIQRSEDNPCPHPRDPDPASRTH
Procedure: Additional peptide inhibitors were evaluated by a procedure similar to that described above. Stock solutions of inhibitors (1.00 mM) were prepared in dimethylsulfoxide and compounds were diluted to 0.10 mM with […], pH 7.5, yielding the free boronic acid. After incubation for one hour at about 23°, inhibitors were added to assay solutions (2.00 mL) consisting of […] MeOSuc-Ala-AlaProVal-p-nitroanilide in 0.10M Hepes buffer, pH 7.5, containing 0.50M NaCl. Assays were initiated by addition of 0.50 μg neutrophil elastase. Control assays without inhibitor indicated an initial velocity of 0.0195 min^-1. The value "k" in Table 3, below, is an estimate of the first order rate constant for time-dependent inhibition, as described above for MeOSuc-AlaAlaPro-Boroval-OH (Table 1).

porcine pepsin = porcine pepsin (Sus scrofa, UniProt P00791); assay: Inhibition of pepsin; conditions: Conc. 5.0 × 10^-4 M
Procedure: Pepsin activity was assayed by a procedure substantially similar to that described by Rich, et al., Biochem. Pharmac. 29:2205 (1980). Substrate, […].2 trifluoroacetate, and porcine pepsin were obtained from commercial sources. Assay solutions, in a volume of 2.00 mL, contained 2.0×10^-4 M substrate in 0.040M sodium formate buffer, pH 4.0, and 0.050 mL of inhibitor solutions in dimethylsulfoxide. Assays were initiated by addition of 0.020 mL of pepsin (0.10 mg/mL), and hydrolysis of substrate was monitored by measuring the increase in absorbance at 310 nm on a spectrophotometer.

[1] = biological target: Porcine pancreatic elastase (Sus scrofa, UniProt P00772); assay: Inhibition of pancreatic elastase
Procedure: Porcine pancreatic elastase (9.8 U/mg.) was obtained from commercial sources. […] Reactions were initiated by addition of 0.5 μg of elastase in 0.020 mL of 0.020M sodium acetate buffer, pH 6.0, and hydrolysis of substrate was monitored spectrophotometrically at 405 nm at 25° C. Assay results are set forth in Table 4, below, expressed as percentages of activity of control mixtures to which no inhibitor was added: […]

α-chymotrypsin = biological target: T2, α-chymotrypsin (Bos taurus, UniProt P00766); assay: Titration of α-chymotrypsin
T2 construct: purchased
Procedure: In these experiments, α-chymotrypsin, obtained from commercial sources, was standardized by titration with various concentrations of MeOSuc-AlaAlaPro-Borophe-diethanolamine. In each case, enzyme was incubated with inhibitor for 5 minutes at 23°, in 0.01M Hepes buffer, pH 7.5, containing 0.50M NaCl and 10% dimethylsulfoxide. Aliquots were then removed and assayed for enzyme activity.

thermolysin = biological target: T3, thermolysin (Bacillus thermoproteolyticus, UniProt P00800); assay: Inhibition of thermolysin; conditions: Conc. 5.0 × 10^-4 M
T3 construct: purchased
T3 sequence (P00800 233-548): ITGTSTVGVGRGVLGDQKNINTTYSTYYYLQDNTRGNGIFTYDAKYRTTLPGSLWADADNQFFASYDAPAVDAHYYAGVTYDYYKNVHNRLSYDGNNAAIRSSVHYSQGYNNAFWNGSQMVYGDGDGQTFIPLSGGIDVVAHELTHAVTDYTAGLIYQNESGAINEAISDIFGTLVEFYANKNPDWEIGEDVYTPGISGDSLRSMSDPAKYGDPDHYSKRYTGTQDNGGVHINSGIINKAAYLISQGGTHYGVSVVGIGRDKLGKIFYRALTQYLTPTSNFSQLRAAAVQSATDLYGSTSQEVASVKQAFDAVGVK
Procedure: The metalloenzyme thermolysin was assayed by a procedure substantially similar to that described by Feder et al., Biochemistry 9:2784 (1970). Substrate, furylacryloyl-glycyl-leucinamide, and thermolysin were obtained from commercial sources. Assay solutions consisted of furylacryloyl-glycyl-leucinamide (0.100 mL, 8.0×10^-3 M in N,N-dimethylformamide) and 1.90 mL of 0.50M Tris buffer, pH 7.5, containing 0.10M NaCl and 0.010M CaCl2. Either 0.100 mL of dimethylsulfoxide or 0.100 mL of dimethylsulfoxide containing inhibitor was added and the reaction was initiated by the addition of 0.020 mL of thermolysin (1.0 mg/mL). The rate of hydrolysis was monitored by measuring the decrease in absorbance at 345 nm.

Sequence of porcine pepsin (P00791 60-385): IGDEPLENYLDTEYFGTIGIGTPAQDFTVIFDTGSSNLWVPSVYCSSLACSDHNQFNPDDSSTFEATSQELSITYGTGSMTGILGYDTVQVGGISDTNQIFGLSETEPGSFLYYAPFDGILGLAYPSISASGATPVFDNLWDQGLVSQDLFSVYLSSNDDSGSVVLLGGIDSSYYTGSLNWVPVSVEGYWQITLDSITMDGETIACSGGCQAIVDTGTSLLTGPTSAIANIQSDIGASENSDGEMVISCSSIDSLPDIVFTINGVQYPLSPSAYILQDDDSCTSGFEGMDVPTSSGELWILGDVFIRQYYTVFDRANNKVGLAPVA
Sequence of Porcine pancreatic elastase (P00772 27-266): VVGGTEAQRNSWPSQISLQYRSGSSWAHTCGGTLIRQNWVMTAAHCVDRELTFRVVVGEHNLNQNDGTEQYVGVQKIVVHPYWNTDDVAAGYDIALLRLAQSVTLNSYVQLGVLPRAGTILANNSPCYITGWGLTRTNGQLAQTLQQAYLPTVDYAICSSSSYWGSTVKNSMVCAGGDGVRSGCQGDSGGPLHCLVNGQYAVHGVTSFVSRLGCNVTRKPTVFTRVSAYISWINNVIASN

CCC(C)C(NC(=O)C1CCCN1C(=O)C(C)NC(=O)C(C)NC(=O)CCC(=O)OC)B(O)O (stereo not shown) [MeOSuc--Ala--Ala--Pro--Boroile--OH]
% Initial Activity (neutrophil elastase; Conc. 1.0 × 10^-7 M): 60%
k, first order rate constant for time-dependent inhibition (neutrophil elastase; Conc. 1.0 × 10^-7 M): 0.28 min⁻¹

CC(C)C(NC(=O)C(Cc1ccccc1)NC(=O)CNC(=O)C(Cc1ccccc1)NC(=O)OCc1ccccc1)B(O)O (stereo not shown) [Z--Phe--Gly--Phe--Boroval--OH]
% Initial Activity (neutrophil elastase; Conc. 2.0 × 10^-7 M): 47%
k, first order rate constant for time-dependent inhibition (neutrophil elastase; Conc. 2.0 × 10^-7 M): 0.18 min⁻¹

CC(C)C(NC(=O)C(CCC(=O)O)NC(=O)CNC(=O)C(N)Cc1ccccc1)B(O)O (stereo not shown) [H--Phe--Gly--Glu--Boroval--OH]
% Initial Activity (neutrophil elastase; Conc. 2.0 × 10^-6 M): 54%

CC(C)C(NC(=O)C(CCC(=O)OCc1ccccc1)NC(=O)CNC(=O)C(Cc1ccccc1)NC(=O)OCc1ccccc1)B(O)O (stereo not shown) [Z--Phe--Gly--Glu(OBzl)--Boroval--OH]
% Initial Activity (neutrophil elastase; Conc. 1.0 × 10^-7 M): 61%
k, first order rate constant for time-dependent inhibition (neutrophil elastase; Conc. 1.0 × 10^-7 M): 0.20 min⁻¹

COC(=O)CCC(=O)N[C@@H](Cc1ccccc1)C(=O)NCC(=O)N[C@@H](CO)C(=O)NC(B(O)O)C(C)C (stereo partly shown) [MeOSuc--Phe--Gly--Ser--Boroval--OH]
% Initial Activity (neutrophil elastase; Conc. 5.0 × 10^-7 M): 78%
k, first order rate constant for time-dependent inhibition (neutrophil elastase; Conc. 5.0 × 10^-7 M): 0.26 min⁻¹

CC(C)C[C@H](NC(=O)CNC(=O)[C@@H](N)Cc1ccccc1)B1OC(C)(C)C(C)(C)O1.O=C(O)C(F)(F)F [H--Phe--Gly--Boroleu--pinacol, H-PheGly-Boroleu-pinacol.trifluoroacetate]
% Activity (porcine pepsin): 69%

CC(C)C(NC(=O)C(CO)NC(=O)CNC(=O)C(N)Cc1ccccc1)B(O)O (stereo not shown) [H--Phe--Gly--Ser--Boroval--OH]
% Initial Activity (neutrophil elastase; Conc. 1.0 × 10^-6 M): 75%

COC(=O)CCC(=O)N[C@@H](C)C(=O)N[C@@H](C)C(=O)N1CCC[C@H]1C(=O)NC(C)B1OCCNCCO1 (stereo partly shown) [MeOSuc-AlaAlaPro-Boroala-diethanolamine]
capacity for inhibition of pancreatic elastase, crystalline versus amorphous sample ([1]; crystalline sample relative to amorphous sample of Example 9): at least 5 fold

CC(C)CC(NC(=O)CNC(=O)C(Cc1ccccc1)NC(=O)OCc1ccccc1)C(=O)NC(B(O)O)C(C)C (stereo not shown) [Z--Phe--Gly--Leu--Boroval--OH]
% Initial Activity (neutrophil elastase; Conc. 2.0 × 10^-7 M): 62%
k, first order rate constant for time-dependent inhibition (neutrophil elastase; Conc. 2.0 × 10^-7 M): 0.26 min⁻¹

COC(=O)CCC(=O)NC(C)C(=O)NC(C)C(=O)N1CCCC1C(=O)NC(Cc1ccccc1)B1OCCNCCO1 (stereo not shown) [MeOSuc-AlaAlaPro-Borophe-diethanolamine]
% Activity (α-chymotrypsin; α-chymotrypsin 3 μg/mL, inhibitor 25 nM): 68.2%
% Activity (α-chymotrypsin; α-chymotrypsin 3 μg/mL, inhibitor 50 nM): 52.3%
% Activity (α-chymotrypsin; α-chymotrypsin 3 μg/mL, inhibitor 75 nM): 31.8%
% Activity (α-chymotrypsin; α-chymotrypsin 3 μg/mL, inhibitor 100 nM): 18.2%
% Activity (α-chymotrypsin; α-chymotrypsin 15 μg/mL, inhibitor 50 nM): 93.8%
% Activity (α-chymotrypsin; α-chymotrypsin 15 μg/mL, inhibitor 100 nM): 80.4%
% Activity (α-chymotrypsin; α-chymotrypsin 15 μg/mL, inhibitor 200 nM): 65.1%
% Activity (α-chymotrypsin; α-chymotrypsin 15 μg/mL, inhibitor 300 nM): 47.9%
% Activity (α-chymotrypsin; α-chymotrypsin 15 μg/mL, inhibitor 400 nM): 31.6%
% Activity (α-chymotrypsin; α-chymotrypsin 15 μg/mL, inhibitor 500 nM): 15.3%

CC(C)C(NC(=O)C1CCCN1C(=O)C(Cc1ccccc1)NC(=O)OC(C)(C)C)B(O)O [Boc--D-Phe--Pro--Boroval--OH]
% Initial Activity (neutrophil elastase; Conc. 2.0 × 10^-7 M): 54%
k, first order rate constant for time-dependent inhibition (neutrophil elastase; Conc. 2.0 × 10^-7 M): 0.35 min⁻¹

COC(=O)CCC(=O)NC(Cc1ccccc1)C(=O)NCC(=O)NC(CCC(=O)O)C(=O)NC(B(O)O)C(C)C (stereo not shown) [MeOSuc--Phe--Gly--Glu--Boroval--OH]
% Initial Activity (neutrophil elastase; Conc. 1.0 × 10^-6 M): 52%
k, first order rate constant for time-dependent inhibition (neutrophil elastase; Conc. 1.0 × 10^-6 M): 0.18 min⁻¹

CC(NC(=O)C1CCCN1C(=O)C(Cc1ccccc1)NC(=O)OCc1ccccc1)C(=O)NC(B(O)O)C(C)C (stereo not shown) [Z--Phe--Pro--Ala--Boroval--OH]
% Initial Activity (neutrophil elastase; Conc. 4.0 × 10^-6 M): 51%

CC(C)CC(NC(=O)CNC(=O)OC(C)(C)C)B1OC(C)(C)C(C)(C)O1 (stereo not drawn) [Boc--Gly--Boroleu--pinacol, Boc-Gly-Boroleu-pinacol]
% Activity (porcine pepsin): 87%

CC(C)C(NC(=O)C(COCc1ccccc1)NC(=O)CNC(=O)C(Cc1ccccc1)NC(=O)OCc1ccccc1)B(O)O (stereo not shown) [Z--Phe--Gly--Ser(OBzl)--Boroval--OH]
% Initial Activity (neutrophil elastase; Conc. 1.25 × 10^-7 M): 66%
k, first order rate constant for time-dependent inhibition (neutrophil elastase; Conc. 1.25 × 10^-7 M): 0.17 min⁻¹

CC(C)CC(NC(=O)CNC(=O)OC(C)(C)C)B1OCCNCCO1 (stereo not drawn) [Boc--Gly--Boroleu--diethanolamine, Boc-Gly-Boroleu-diethanolamine]
% Activity (porcine pepsin): 90%

CC(C)CC(NC(=O)CNC(=O)C(Cc1ccccc1)NC(=O)OC(C)(C)C)B1OCCNCCO1 (stereo not shown) [Boc--Phe--Gly--Boroleu--diethanolamine, Boc-PheGly-Boroleu-diethanolamine]
% Activity (porcine pepsin): 71%

CC(C)C(NC(=O)C(CCCCNC(=O)OC(C)(C)C)NC(=O)CNC(=O)C(Cc1ccccc1)NC(=O)OCc1ccccc1)B(O)O (stereo not shown) [Z--Phe--Gly--Lys(Boc)--Boroval--OH]
% Initial Activity (neutrophil elastase; Conc. 2.0 × 10^-7 M): 55%
k, first order rate constant for time-dependent inhibition (neutrophil elastase; Conc. 2.0 × 10^-7 M): 0.37 min⁻¹

COC(=O)CCC(=O)NC(CCCCNC(=O)OCc1ccccc1)C(=O)NC(C)C(=O)N1CCCC1C(=O)NC(B(O)O)C(C)C (stereo not shown) [MeOSuc--Lys(Z)--Ala--Pro--Boroval--OH, MeOSuc--Lys(Z)--AlaPro--Boroval--OH]
% Initial Activity (neutrophil elastase; Conc. 5.0 × 10^-8 M): 59%
k, first order rate constant for time-dependent inhibition (neutrophil elastase; Conc. 5.0 × 10^-8 M): 0.54 min⁻¹

CC(NC(=O)C(C)NC(=O)OC(C)(C)C)B1OC(C)(C)C(C)(C)O1 (stereo not drawn) [Boc--Ala--Boroala--pinacol, Boc-Ala-Boroala-pinacol]
% Activity (porcine pepsin): 90%
% Activity (thermolysin): 102%

CC(C)CC(NC(=O)CNC(=O)C(Cc1ccccc1)NC(=O)OC(C)(C)C)B1OC(C)(C)C(C)(C)O1 (stereo not shown) [Boc--Phe--Gly--Boroleu--pinacol, Boc-PheGly-Boroleu-pinacol]
% Activity (porcine pepsin): 68%

CC(C)C(NC(=O)C(CCCCN)NC(=O)CNC(=O)C(Cc1ccccc1)NC(=O)OCc1ccccc1)B(O)O (stereo not shown) [Z--Phe--Gly--Lys--Boroval--OH]
% Initial Activity (neutrophil elastase; Conc. 2.5 × 10^-7 M): 67%
k, first order rate constant for time-dependent inhibition (neutrophil elastase; Conc. 2.5 × 10^-7 M): 0.28 min⁻¹

CC(NC(=O)C(C)NC(=O)OC(C)(C)C)B1OCCNCCO1 (stereo not drawn) [Boc--Ala--Boroala--diethanolamine, Boc-Ala-Boroala-diethanolamine]
% Activity (porcine pepsin): 85%
Activity % of Control ([1]; inhibitor 5.0 × 10^5 nM, 1.0 min, time dependency not observed): 67 % of Control
% Activity (thermolysin): 99%

Reference: patent publication US4499082A, “α-Aminoboronic acid peptides” (E. I. Du Pont de Nemours and Company, priority 1983, dated 1985)
